Experimental data from ChEMBL document CHEMBL1153935, “4,4'-Dihydroxy-trans-stilbene, a resveratrol analogue, exhibited enhanced antioxidant activity and cytotoxicity” (Bioorg Med Chem, 2009).
Calls of active or inactive are those of the source. No cut-off for these calls is given here.

How the values were obtained:
[1] = tested on: Erythrocyte; assay: Inhibition of Fe(2+)/ascorbate-induced lipid peroxidation in human erythrocyte ghosts assessed as inhibition of malondialdehyde formation per mg of protein at 2 uM after 30 mins; format: functional
[2] = tested on: Erythrocyte; assay: Inhibition of Fe(2+)/ascorbate-induced lipid peroxidation in human erythrocyte ghosts assessed as inhibition of malondialdehyde formation at 1 to 5 uM; format: functional, cell-based
[3] = tested on: HL-60; assay: Cytotoxicity against human HL60 cells at 10 uM after 48 hrs by MTT assay; format: functional
[4] = tested on: Erythrocyte; assay: Inhibition of Fe(2+)/ascorbate-induced lipid peroxidation in human erythrocyte ghosts assessed as inhibition of malondialdehyde formation at 5 uM; format: functional, cell-based
[5] = tested on: Erythrocyte; assay: Inhibition of Fe(2+)/ascorbate-induced lipid peroxidation in human erythrocyte ghosts assessed as increase in inhibition period; format: functional, cell-based
[6] = tested on: Erythrocyte; assay: Inhibition of Fe(2+)/ascorbate-induced lipid peroxidation in human erythrocyte ghosts assessed as inhibition of malondialdehyde formation per mg of protein at 3 uM after 30 mins; format: functional
[7] = tested on: HL-60; assay: Cytotoxicity against human HL60 cells at 30 uM after 48 hrs by MTT assay; format: functional
[8] = tested on: HL-60; assay: Cytotoxicity against human HL60 cells after 48 hrs by MTT assay; format: functional, cell-based; conditions: for IC50: HL-60, 48 h
[9] = tested on: Erythrocyte; assay: Inhibition of Fe(2+)/ascorbate-induced lipid peroxidation in human erythrocyte ghosts assessed as inhibition of malondialdehyde formation per mg of protein at 1 uM after 30 mins; format: functional
[10] = tested on: HL-60; assay: Cytotoxicity against human HL60 cells at 20 uM after 48 hrs by MTT assay; format: functional

SMILES	Activity [1] [nmol]	Activity [2]	Activity [3] [%]	Activity [4]	Activity [5]	Activity [6] [nmol]	Activity [7] [%]	Activity [8]	IC50 [8] [µM]	Activity [9] [nmol]	Activity [10] [%]
Oc1ccc(/C=C/c2cc(O)cc(O)c2)cc1 [RESVERATROL]	0.61	Dose-dependent effect	83	Active	Dose-dependent effect	0.18	43	Dose-dependent effect	36.3	1.33	72
Oc1ccc(/C=C/c2ccc(O)cc2)cc1 [TRANS-4,4'-DIHYDROXYSTILBENE]	0.45					0.17			6.5	0.8	
COc1cc([C@@H]2c3cc4c(cc3[C@@H](O[C@@H]3O[C@@H]5CO[C@@H](C)O[C@H]5[C@H](O)[C@H]3O)[C@H]3COC(=O)[C@H]23)OCO4)cc(OC)c1O [ETOPOSIDE]									3.3		
